Consider 7 molecules from patent US20260014264A1, “SPECIFIC TOPOISOMERASE INHIBITOR, USE AS ANTIBODY DRUG CONJUGATE, AND PREPARATION METHOD THEREFOR” (BIOBRICS LIFE SCIENCE (NANTONG) CO., LTD., priority 2022, published 2026).

One assay relates to human non-small cell lung cancer cell line A549. Kind of assay: In vitro cytotoxicity test of released camptothecin analogs (Luminescent Cell Viability Assay). The class given is cell-based. The conditions noted are these: A549, 120 h, read-out: IC50 (A549, nM). On the procedure: Stable transfection of high expression Her2, high expression SK-BR-3 and BT-474 human breast cancer cells, NCI-N87 human gastric cancer cells and human non-small cell lung cancer cell line A549 were selected as the cell lines for in vitro activity detection in this experiment, and the killing dose and effect of different antibody coupled drugs on cells were observed. Preliminary selection of plate density for each cell type: 2×10^3 cells/well, followed by cytotoxicity assay after 16-24 h; Next, the antibody coupled drug prepared in Example 2 was tested with a final concentration set at 5000 nM as the starting concentration, and a series of 10 concentrations (4-10 fold dilution) were designed for 5000-0.006 nM. […] The IC50 was calculated after reading the fluorescence data.
The linkers in the present invention are all cleavable linkers. Therefore, the released camptothecin analogs were first subjected to in vitro cytotoxic activity testing, and the results are shown in the table below.
Usually IC50 stands for the concentration that gives 50% inhibition. For `CC[C@@]1(O)C(=O)OCc2c1cc1n(c2=O)Cc2c-1nc1cc(F)c(NC(=O)CO)c3c1c2CCC3` [Compound A1-FD], the IC50 was determined as 69.1 nM.
In the case of `CC[C@@]1(O)C(=O)OCc2c1cc1n(c2=O)Cc2c-1nc1cc(F)c(C)c3c1c2[C@@H](NC(=O)CO)CC3` [Dxd, reference compound], the IC50 amounted to 45.1 nM.

Still in this assay, the particulars now being: A549 cells, 120 hours, chemiluminescence cell viability, read-out: IC50 (A549).
`CC[C@@]1(O)C(=O)OCc2c1cc1n(c2=O)Cc2c-1nc1cc(F)c(NC(=O)C(C)O)c3c1c2CCC3` (stereo partly shown) [Compound A2-FD]: the IC50 is 0.53 nM.
Take `CC[C@@]1(O)C(=O)OCc2c1cc1n(c2=O)Cc2c-1nc1cc(F)c(NC(=O)C(O)C3CC3)c3c1c2CCC3` (stereo partly shown) [Compound A3-FD]: the IC50 worked out at 5.5 nM.
Take `CC[C@@]1(O)C(=O)OCc2c1cc1n(c2=O)Cc2c-1nc1cc(F)c(NC(=O)C3CC3O)c3c1c2CCC3` (stereo partly shown) [Compound A9-FD]: the IC50 stood at 25.2 nM.
In the case of `CC[C@@]1(O)C(=O)OCc2c1cc1n(c2=O)Cc2c-1nc1cc(F)c(NC(=O)C3CC(O)C3)c3c1c2CCC3` (stereo partly shown) [Compound A11-FD], the IC50 stood at 2.1 nM.
In the case of `CC[C@@]1(O)C(=O)OCc2c1cc1n(c2=O)Cc2c-1nc1ccc(NC(=O)CO)c3c1c2CCC3` [Compound A16-FD], the IC50 is 79.5 nM.
